Consider seven compounds from patent publication US4886806A, “Flavone-3-carboxylic acids compounds and pharmaceutical compositions containing them” (Kali-Chemie Pharma GmbH, priority 1987, dated 1989).

For assay [1], the system named is oxygen radical-forming activity of activated peritoneal exudate cells (PEC) of mice. The assay can be described thus: Peak chemiluminescence (CL) test: inhibition of oxygen radical liberation from activated peritoneal exudate cells. It counts as cell-based. To be noted: Mus musculus, 10^-4 Mol substance/l, added at peak of cell activity, read-out: Inhibition in vitro of the oxygen radical liberation, Chemiluminescence Test % inhibition, Pk. CL. Here is the method: 1. To determine the inhibiting effect on the oxygen radical-forming activity of inflamed cells, the in vitro inhibition of the release of oxygen radicals from activated peritoneal exudate cells (=PEC) of mice was determined in the chemiluminescence (CL) test according to the method of Mueller-Peddinghaus (Int. J. Immunopharmac. 6, 455-466 (1984)). […] The intensity of the chemiluminescence is a measurement of the oxygen radical content in the suspension and thus the degree of activity of the inflamed cells. In this, three functionally different parameters are detected, the spontaneous CL, the induced CL and the peak CL. The spontaneous CL and the induced CL on the one hand and the peak CL on the other hand differ from each other because in the first two parameters the test substances are in contact with the cells for a 30 minute preincubation period before the inflammation irritant is added, whereas with the peak CL the cells are first stimulated, and the test substance is added at the peak of their activity. The measurement of the spontaneous CL thus detects the influence of the test substance on the relative rest activity of inflamed cells, the induced CL represents the effect of the test substances on the activatability of the cells and the inhibition of the peak CL indicates the effect of the test substances on the maximum activity of the inflamed cells. 1.1 Production of PEC suspension used in the test. In order to induce the PEC formation, female mice of 20-25 g body weight were each injected i.p. with 2 ml of a 3% solution of thioglycollate in sterile isotonic sodium chloride solution. Twenty four hours after the thioglycollate injection the cells, which predominantly consisted of polymorphonuclear leucocytes, were recovered by washing out of the abdominal cavity and washed twice. As cell culture medium there was added a commercially available solution under the designation RPMI 1640 (pH 7.2) (produced by Flow Laboratories, […], Germany), which contains 10% fetal calf serum (FCS, produced by Seromed GmbH, Munich, Germany) 18 μmol/l sodium bicarbonate and 2 μmol/l L-glutamine. The cell pellets of four animals each time were resuspended in cell culture medium, collected together and the suspension was made up to 2×10^6 cells per ml with cell culture medium. The cell suspensions were kept under ice cooling until their use the same day. 1.2 Production of the complement opsonized zymosan (=ZyC3 b) suspension used for activation. 200 mg zymosan (glycoprotein mixture isolated from the cell walls of brewer's yeast, Sacchomyces […], produced by Sigma Chemical Co., Munich, Germany) were suspended in 10 ml phosphate buffer solution according to Dulbecco (produced by Flow Laboratories, […], Germany), well stirred and heated for thirty minutes in a water bath to 100° C. After cooling, it was centrifuged for five minutes at 4° C. and at 600 ×g and the supernatant was discarded. The sediment was resuspended in 50 ml human serum and incubated for thirty minutes at 37° C. in a shaking water bath. Then it was centrifuged for five minutes at 600 ×g and 420 C., the supernatant decanted and the sediment washed with phosphate buffer solution. The working suspension of 8×10^-3 g ZyC3 b/ml was produced from the sediment by dilution with phosphate buffer solution (Mueller-Peddinghaus et al., Zbl. Vet. Med. B. 30, 559-575). 1.3 Chemiluminescence (CL) measurement (Peak-CL). The PEC suspension was divided into samples of 100 μl each, placed in test tubes, and these were incubated for ten minutes at a temperature of 3720 C. in a measurement device (Chemiluminescence analyzer, Laboratorium Prof. Berthold, Wildbad, Germany). Then in order to amplify the chemiluminescence, 100 μl lucigenin solution was added (final concentration 1.54×10^-4 mol/l) and incubated for 16 more minutes. The cells were then activated by the addition of 100 μl of the ZyC3 b suspension produced as described in section 1.2 plus 100 μl phosphate buffer solution. […]

Assay [2] relates to Lipoxygenase. The assay can be described thus: LTB4 synthesis and inhibition test (lipoxygenase inhibition in vitro) in polymorphonuclear leucocytes. To be noted: Homo sapiens, PMNL, 10^-4 Mol/l, Ca-ionophore A 23187, arachidonic acid, read-out: Lipoxygenase inhib. in vitro, % inhibition of the LTB4 synthesis at 10^-4 Mol/l. It counts as cell-based. Here is the method: 2. In order to investigate the lipoxygenase-inhibiting properties, the inhibiting effect of the substances on the biosynthesis of leucotriene B4 (=LTB4) from arachidonic acid by activated inflamed cells was determined in vitro. Leucotriene B4, a dihydroxy fatty acid which plays an important role not only in the inflammation but also in allergic reactions was oxidatively formed, starting from arachidonic acid, by oxidation through the action of the enzyme lipoxygenase.
LTB4 Synthesis and Inhibition Test.
The combined extracts were evaporated under vacuum to dryness and the residue was taken up in 0.5 ml 30% aqueous methanol and was analyzed with the aid of high pressure liquid chromatography with phase reversal (=reversed phase-HPLC). The stationary phase (=separating medium) consisted of silica gel containing octadecyl groups chemically bound thereto (=RSIL C18 HP; produced by Autech, Darfield, Ill.). The solvent mixture is methanol:water:acetic acid (67:33:0.1; v/v/v), which had been adjusted to a pH value of 6.2 with NH3 /H2 O. The flow velocity was 1 ml/min. […] The LTB4 signals were compared with those of the control (cell incubation with solvent) and reported as percent inhibition of LTB4 synthesis compared with the controls.

Assay [3] relates to oxygen radical-forming activity of peritoneal exudate cells (PEC) of mice. Put plainly: Spontaneous CL and induced CL chemiluminescence test: inhibition of oxygen radical liberation from peritoneal exudate cells (30 min preincubation). It counts as cell-based. Also on record: concentration or dose not given beside the values. To be noted: for Inhibition in vitro of the oxygen radical liberation, Chemiluminescence Test % inhibition, Ind. CL: induced CL, after ZyC3b activation; for Inhibition in vitro of the oxygen radical liberation, Chemiluminescence Test % inhibition, Spnt. CL: spontaneous CL, before ZyC3b. Here is the method:
1. To determine the inhibiting effect on the oxygen radical-forming activity of inflamed cells, the in vitro inhibition of the release of oxygen radicals from activated peritoneal exudate cells (=PEC) of mice was determined in the chemiluminescence (CL) test according to the method of Mueller-Peddinghaus (Int. J. Immunopharmac. 6, 455-466 (1984)). […] The intensity of the chemiluminescence is a measurement of the oxygen radical content in the suspension and thus the degree of activity of the inflamed cells. In this, three functionally different parameters are detected, the spontaneous CL, the induced CL and the peak CL. The spontaneous CL and the induced CL on the one hand and the peak CL on the other hand differ from each other because in the first two parameters the test substances are in contact with the cells for a 30 minute preincubation period before the inflammation irritant is added, whereas with the peak CL the cells are first stimulated, and the test substance is added at the peak of their activity. The measurement of the spontaneous CL thus detects the influence of the test substance on the relative rest activity of inflamed cells, the induced CL represents the effect of the test substances on the activatability of the cells and the inhibition of the peak CL indicates the effect of the test substances on the maximum activity of the inflamed cells. 1.1 Production of PEC suspension used in the test. In order to induce the PEC formation, female mice of 20-25 g body weight were each injected i.p. with 2 ml of a 3% solution of thioglycollate in sterile isotonic sodium chloride solution. Twenty four hours after the thioglycollate injection the cells, which predominantly consisted of polymorphonuclear leucocytes, were recovered by washing out of the abdominal cavity and washed twice. As cell culture medium there was added a commercially available solution under the designation RPMI 1640 (pH 7.2) (produced by Flow Laboratories, […], Germany), which contains 10% fetal calf serum (FCS, produced by Seromed GmbH, Munich, Germany) 18 μmol/l sodium bicarbonate and 2 μmol/l L-glutamine. The cell pellets of four animals each time were resuspended in cell culture medium, collected together and the suspension was made up to 2×10^6 cells per ml with cell culture medium. The cell suspensions were kept under ice cooling until their use the same day. 1.2 Production of the complement opsonized zymosan (=ZyC3 b) suspension used for activation. 200 mg zymosan (glycoprotein mixture isolated from the cell walls of brewer's yeast, Sacchomyces […], produced by Sigma Chemical Co., Munich, Germany) were suspended in 10 ml phosphate buffer solution according to Dulbecco (produced by Flow Laboratories, […], Germany), well stirred and heated for thirty minutes in a water bath to 100° C. After cooling, it was centrifuged for five minutes at 4° C. and at 600 ×g and the supernatant was discarded. The sediment was resuspended in 50 ml human serum and incubated for thirty minutes at 37° C. in a shaking water bath. Then it was centrifuged for five minutes at 600 ×g and 420 C., the supernatant decanted and the sediment washed with phosphate buffer solution. The working suspension of 8×10^-3 g ZyC3 b/ml was produced from the sediment by dilution with phosphate buffer solution (Mueller-Peddinghaus et al., Zbl. Vet. Med. B. 30, 559-575). 1.3 Chemiluminescence (CL) measurement (Peak-CL). […] At the end of this preincubation phase, 100 μl lucigenin were added, and in the course of the subsequent sixteen minute incubation phase the spontaneous CL parameter was determined with two measuring points. Then 100 μl ZyC3 b+100 μl phosphate buffer were added, and during the course of the subsequent twenty-four minute cell activation the induced CL parameter was measured with three measuring points. All measurements were determined twice. The parameters spontaneous CL and induced CL were determined on the same day with two separate cell pools.

Assay [4] relates to carrageenin foot edema in male Wistar rats. Put plainly: Inhibition of carrageenin foot edema in rats (Winter et al.). It counts as in vivo. To be noted: Rattus norvegicus, 2 h after irritant. Here is the method: A similar volume of isotonic sodium chloride solution was injected in the left hind foot. The volume of the each rat's foot was measured plethysmometrically both before and two hours after administration of the irritant, and the swelling of the foot volume after the carrageenin application was compared to the foot which was treated only with sodium chloride solution The inhibition of edema formation by the test substances in the treated animals was compared in percentage terms with the animals of the untreated control group.
(The carrageenan paw model is a standard test of acute inflammation.)

For `O=C(NCCCC[N+]1([O-])CC[N+]([O-])(c2cccc[n+]2[O-])CC1)c1c(-c2ccccc2)oc2ccccc2c1=O` (stereo not drawn) [Example 26], in assay [1], the inhibition at 100 µM (stock) worked out at 10%. In addition, the inhibition at 100 µM in assay [2] was found to be 43%. For the same compound, in assay [3], the “Inhibition in vitro of the oxygen radical liberation, Chemiluminescence Test % inhibition, Ind. CL” value is reported as 3% and the “Inhibition in vitro of the oxygen radical liberation, Chemiluminescence Test % inhibition, Spnt. CL” value is given as 13%.

In the case of `CC(=O)Oc1cc(-c2oc3ccccc3c(=O)c2C(=O)N2CCN(Cc3ccccc3)CC2)cc(OC(C)=O)c1OC(C)=O` [Example 42b], the inhibition at 100 µM (stock) in assay [1] came out at 99%. The inhibition at 100 µM in assay [2] was found to be 100%. Also, in assay [3], the “Inhibition in vitro of the oxygen radical liberation, Chemiluminescence Test % inhibition, Ind. CL” value is reported as 100% and the “Inhibition in vitro of the oxygen radical liberation, Chemiluminescence Test % inhibition, Spnt. CL” value is reported as 99%.

Turning to `O=C(c1c(-c2ccc(O)c(O)c2)oc2ccccc2c1=O)N1CCN(c2ccccn2)CC1` [Example 29], the inhibition at 100 µM (stock) in assay [1] was 75%. The inhibition at 100 µM in assay [2] is 97%. For the same compound, in assay [3], the “Inhibition in vitro of the oxygen radical liberation, Chemiluminescence Test % inhibition, Ind. CL” value came out at 74% and the “Inhibition in vitro of the oxygen radical liberation, Chemiluminescence Test % inhibition, Spnt. CL” value was 65%.

By inhibition in vivo is commonly meant how much of the control response was suppressed. Take `O=C(c1c(-c2cc(O)c(O)c(O)c2)oc2ccccc2c1=O)N1CCN(c2ccccn2)CC1` [Example 10b, 3',4',5'-Trihydroxy-3-{[4-(2-pyridyl)-piperazin-1-yl]-carbonyl}flavone]: the inhibition in vivo at 215 µmol/kg in assay [4] (ip, 215 μmol/kg i.p.) worked out at 35%; in assay [4] (po, 215 μmol/kg p.o.), 30%.

Consider `O=C(c1c(-c2ccccc2Cl)oc2ccccc2c1=O)N1CCN(c2ccccn2)CC1` [Example 35], for which the inhibition at 100 µM in assay [2] turned out to be 100%.

Compound `COc1cc(-c2oc3ccccc3c(=O)c2C(=O)NCCCCN2CCN(c3ccccn3)CC2)cc(OC)c1OC` [Example 6b, 3',4',5'-Trimethoxy-3-{4-[4-(2-pyridyl)-piperazin-1-yl]-butylaminocarbonyl}flavone] had an inhibition in vivo at 215 µmol/kg in assay [4] (ip, 215 μmol/kg i.p.) of 75%.

For the compound `O=C(NCCCCN1CCN(c2ncccn2)CC1)c1c(-c2ccccc2)oc2ccccc2c1=O` [Example 25], the inhibition in vivo at 215 µmol/kg in assay [4] (ip, 215 μmol/kg i.p.) came to 58%; in assay [4] (po, 215 μmol/kg p.o.), 25%.
